In PubChem BioAssay (NCI):
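Following 48 hours of exposure in 96-well plates, responses at five concentrations were used to interpolate endpoints linearly. TGI: total growth inhibition.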

What was measured:
Assay in all cases: growth of human tumour cells (NCI), 48 h
786-0 renal = test system: 786-0 renal
A498 renal = test system: A498 renal
A549 NSCLC = test system: A549 NSCLC
ACHN renal = test system: ACHN renal
BT-549 breast = test system: BT-549 breast
CAKI-1 renal = test system: CAKI-1 renal
CCRF-CEM leukemia = test system: CCRF-CEM leukemia
COLO 205 colon = test system: COLO 205 colon
DLD-1 colon = test system: DLD-1 colon
DMS 114 small cell lung = test system: DMS 114 small cell lung
DMS 273 small cell lung = test system: DMS 273 small cell lung
DU-145 prostate = test system: DU-145 prostate
EKVX NSCLC = test system: EKVX NSCLC
HCC-2998 colon = test system: HCC-2998 colon
HCT-116 colon = test system: HCT-116 colon
HCT-15 colon = test system: HCT-15 colon
HL-60(TB) leukemia = test system: HL-60(TB) leukemia
HOP-62 NSCLC = test system: HOP-62 NSCLC
HOP-92 NSCLC = test system: HOP-92 NSCLC
HS 578T breast = test system: HS 578T breast
HT29 colon = test system: HT29 colon
IGROV1 ovarian = test system: IGROV1 ovarian
K-562 leukemia = test system: K-562 leukemia
KM12 colon = test system: KM12 colon
KM20L2 colon = test system: KM20L2 colon
LOX IMVI melanoma = test system: LOX IMVI melanoma
LXFL 529 NSCLC = test system: LXFL 529 NSCLC
M14 melanoma = test system: M14 melanoma
M19-MEL melanoma = test system: M19-MEL melanoma
MALME-3M melanoma = test system: MALME-3M melanoma
MCF7 breast = test system: MCF7 breast
MDA-MB-231 breast = test system: MDA-MB-231 breast
MDA-MB-435 = test system: MDA-MB-435
MDA-N = test system: MDA-N
MOLT-4 leukemia = test system: MOLT-4 leukemia
NCI-H226 lung = test system: NCI-H226 lung
NCI-H23 lung = test system: NCI-H23 lung
NCI-H460 lung = test system: NCI-H460 lung
NCI-H522 lung = test system: NCI-H522 lung
NCI/ADR-RES ovarian = test system: NCI/ADR-RES ovarian
OVCAR-3 ovarian = test system: OVCAR-3 ovarian
OVCAR-4 ovarian = test system: OVCAR-4 ovarian
OVCAR-5 ovarian = test system: OVCAR-5 ovarian
OVCAR-8 ovarian = test system: OVCAR-8 ovarian
PC-3 prostate = test system: PC-3 prostate
RPMI-8226 leukemia = test system: RPMI-8226 leukemia
RXF 393 renal = test system: RXF 393 renal
SF-268 CNS = test system: SF-268 CNS
SF-295 CNS = test system: SF-295 CNS
SF-539 CNS = test system: SF-539 CNS
SK-MEL-2 melanoma = test system: SK-MEL-2 melanoma
SK-MEL-28 melanoma = test system: SK-MEL-28 melanoma
SK-MEL-5 melanoma = test system: SK-MEL-5 melanoma
SK-OV-3 ovarian = test system: SK-OV-3 ovarian
SN12C renal = test system: SN12C renal
SNB-19 CNS = test system: SNB-19 CNS
SNB-75 CNS = test system: SNB-75 CNS
SNB-78 CNS = test system: SNB-78 CNS
SR leukemia = test system: SR leukemia
SW-620 colon = test system: SW-620 colon
T-47D breast = test system: T-47D breast
TK-10 renal = test system: TK-10 renal
U251 CNS = test system: U251 CNS
UACC-257 melanoma = test system: UACC-257 melanoma
UACC-62 melanoma = test system: UACC-62 melanoma
UO-31 renal = test system: UO-31 renal
XF 498 CNS = test system: XF 498 CNS

O=c1c2ccccc2sc2nc(CCl)nn12
TGI (786-0 renal): 34.1 µM
TGI (A498 renal): 8.42 µM
TGI (A549 NSCLC): 93 µM
TGI (ACHN renal): 21.6 µM
TGI (BT-549 breast): > 91.6 µM
TGI (CAKI-1 renal): 22.3 µM
TGI (CCRF-CEM leukemia): > 100 µM
TGI (COLO 205 colon): 30.2 µM
TGI (DLD-1 colon): 21.3 µM
TGI (DMS 114 small cell lung): 48.6 µM
TGI (DMS 273 small cell lung): 22.2 µM
TGI (DU-145 prostate): 21.2 µM
TGI (EKVX NSCLC): 29.1 µM
TGI (HCC-2998 colon): 31.4 µM
TGI (HCT-116 colon): 16.3 µM
TGI (HCT-15 colon): 18.7 µM
TGI (HL-60(TB) leukemia): 44.3 µM
TGI (HOP-62 NSCLC): > 100 µM
TGI (HOP-92 NSCLC): 14.8 µM
TGI (HS 578T breast): 38.1 µM
TGI (HT29 colon): 66 µM
TGI (IGROV1 ovarian): 49.5 µM
TGI (K-562 leukemia): 28.9 µM
TGI (KM12 colon): > 100 µM
TGI (KM20L2 colon): 38 µM
TGI (LOX IMVI melanoma): > 100 µM
TGI (LXFL 529 NSCLC): 62.5 µM
TGI (M14 melanoma): 60.3 µM
TGI (M19-MEL melanoma): > 62.8 µM
TGI (MALME-3M melanoma): 49.4 µM
TGI (MCF7 breast): 36.3 µM
TGI (MDA-MB-231 breast): 23.4 µM
TGI (MDA-MB-435): 29.6 µM
TGI (MDA-N): 17.3 µM
TGI (MOLT-4 leukemia): > 100 µM
TGI (NCI-H226 lung): > 100 µM
TGI (NCI-H23 lung): 28.5 µM
TGI (NCI-H460 lung): 16.5 µM
TGI (NCI-H522 lung): 67.8 µM
TGI (NCI/ADR-RES ovarian): > 100 µM
TGI (OVCAR-3 ovarian): > 100 µM
TGI (OVCAR-4 ovarian): > 100 µM
TGI (OVCAR-5 ovarian): > 100 µM
TGI (OVCAR-8 ovarian): > 100 µM
TGI (PC-3 prostate): 10.7 µM
TGI (RPMI-8226 leukemia): > 100 µM
TGI (RXF 393 renal): 24.5 µM
TGI (SF-268 CNS): 60.6 µM
TGI (SF-295 CNS): > 82.9 µM
TGI (SF-539 CNS): > 80.4 µM
TGI (SK-MEL-2 melanoma): > 100 µM
TGI (SK-MEL-28 melanoma): 28.3 µM
TGI (SK-MEL-5 melanoma): > 100 µM
TGI (SK-OV-3 ovarian): 37.5 µM
TGI (SN12C renal): 29.4 µM
TGI (SNB-19 CNS): > 100 µM
TGI (SNB-75 CNS): 55.2 µM
TGI (SNB-78 CNS): > 100 µM
TGI (SR leukemia): 37.7 µM
TGI (SW-620 colon): 45.6 µM
TGI (T-47D breast): 19.9 µM
TGI (TK-10 renal): 25.4 µM
TGI (U251 CNS): > 100 µM
TGI (UACC-257 melanoma): 32.9 µM
TGI (UACC-62 melanoma): 17 µM
TGI (UO-31 renal): 22.8 µM
TGI (XF 498 CNS): 1.82 µM
